# Measured values from patent US11058654B2, “Compositions and methods for the treatment of hemoglobinopathies and thalassemias” (AXCELLA HEALTH INC., priority 2018, dated 2021).
# Experiments:
# Format in all cases: cell-based, human
# ICAM-1 = ICAM-1 cell integrated intensity in HLMVEC treated with TNFa; settings: 0.5 ng/mL TNFα; amino acids at 20×; 24 hours; in words
# From the text: (§1) A VEC model was employed to assess the ability of amino acids to influence aspects of vascular dysfunction in SCD. TNFa treatment of healthy donor HLMVEC mimics the SCD disease state and induces expression of adhesion markers ICAM-1 and VCAM-1, and secretion of proinflammatory cytokine IL-6. It is established that levels of ICAM-1, VCAM-1, and IL-6 can contribute to SCD pathology and correlate with the incidence and severity of complications in SCD patients. The VEC model sought to test the ability of amino acids to reduce the TNFa-induced disease phenotype by lowering expression of adhesion markers (ICAM-1 and VCAM-1) and inflammatory cytokines (IL-6) while promoting VEC health and viability.
# Primary Human Lung Microvascular Endothelial Cells (HLMVEC; Lonza) were seeded at 6,000 cells per well in Endothelial Cell Growth Basal Medium-2 (Lonza) supplemented with Fetal Bovine Serum (FBS; Lonza), human EGF (Lonza), human VEGF (Lonza), R3-Insulin-like Growth Factor-1 (Lonza), ascorbic acid (Lonza), hydrocortisone (Lonza), human FGF-beta (Lonza), and gentamicin/amphotericin-b (Lonza) in a 96-well plate (Thermo Fisher). […]
# (§2) Antibody binding was detected by fluorescence microscopy using a high content imager (Molecular Devices). Images were analyzed using MetaXpress 6 software to determine the integrated intensity per cell for each wavelength corresponding to ICAM-1 or VCAM-1.
# VCAM-1 = VCAM-1 cell integrated intensity in HLMVEC treated with TNFa; settings: 0.5 ng/mL TNFα; amino acids at 20×; 24 hours; in words
# From the text: as §1
# Primary Human Lung Microvascular Endothelial Cells (HLMVEC; Lonza) were seeded at 6,000 cells per well in Endothelial Cell Growth Basal Medium-2 (Lonza) supplemented with Fetal Bovine Serum (FBS; Lonza), human EGF (Lonza), human VEGF (Lonza), R3-Insulin-like Growth Factor-1 (Lonza), ascorbic acid (Lonza), hydrocortisone (Lonza), human FGF-beta (Lonza), and gentamicin/amphotericin-b (Lonza) in a 96-well plate (Thermo Fisher). The cells were incubated for 45 minutes at room temperature, then incubated overnight at 37° C./5% CO2.
# Following overnight incubation, cell were washed once with 150 μL of Dulbecco's phosphate buffered saline (DPBS; Gibco), and then treated with Endothelial Basal Medium MCB-131 (amino acid, glucose, sodium pyruvate, and phenol red free; US Biologicals) containing a defined custom amino acid concentration based on physiological concentrations in blood of patients with SCD (thus recapitulating observed metabolic imbalances such as the depletion of certain essential amino acids including arginine and aspartate and enrichment of certain non-essential amino acids including glutamate and asparagine), dialyzed FBS (Hyclone), human EGF (Lonza), human VEGF (Lonza), R3-Insulin-like Growth Factor-1 (Lonza), ascorbic acid (Lonza), hydrocortisone (Lonza), human FGF-beta (Lonza), and gentamicin/amphotericin-b (Lonza), glucose, 10 mM HEPES, sodium pyruvate, and sodium bicarbonate supplemented with one of the following: • a. PBS (vehicle control), • b. 0.5 ng/mL Tumor Necrosis Factor alpha (TNFα) and PBS, or; • c. 0.5 ng/mL TNFα and amino acid treatments at 20× mean physiological concentrations in plasma based on values published in the Human Metabolome Database (HMDB) in PBS.
# After 24 hours of treatment, cells were washed once with 150 μL of DPBS (Gibco), then fixed with 4% paraformaldehyde. […]
# as §2
# [1] = test system: sickle cell disease patient blood; assay: Reactive oxygen species (DCF fluorescence, H2O2) in sickle cell disease patient blood
# Procedure: (§3) Whole blood samples were appropriately diluted in Ca^2+- and Mg^2+-free Dulbecco's phosphate buffered saline (DPBS, Life Technologies) and the concentration of erythrocytes (RBC/ml) was measured on a Cellometer K2 Fluorescent Viability Cell Counter according to the manufacturer's RBC/AOPI protocol (Nexcelom Biosciences).
# (§4) Cells were then diluted to 1*10^6 RBC/ml into either prewarmed 37° C. […] 2′-7′-dichlorofluorescin diacetate (DCF, Millipore Sigma), 20 mM in dimethyl sulfoxide (DMSO, Fisher) were added to a working concentration of 100 μM. Cells were incubated with dye for 15 minutes at 37° C., 5% CO2 in a tissue culture incubator, washed once, and resuspended in the 0.9 volumes of the same prewarmed 37° C. buffer with 5 minute spins at 500× g, accel/decal=5 in a swing arm centrifuge (Beckman Coulter). […] Where possible due to solubility constrains, pH-7.4-adjusted stock solutions of amino acids were used. Wells were mixed by pipetting and plates incubated at 37° C., 5% CO2 in a tissue culture incubator for 30 minutes. Optionally, 40 mM H2O2(Millipore Sigma) freshly prepared in the same buffer was added to bring the concentration to 2 mM, wells mixed by pipetting, and plates were incubated an additional 30, 60, 120, or 240 minutes before fluorescence measurement of ROS signal on a Synergy H4 (BioTek) microplate reader with excitation=488 nm and emission=530 nm, and gain either set to autogain, 75, or 100.
# [2] = test system: whole blood of healthy control donors; assay: Reactive oxygen species (DCF fluorescence, H2O2) in whole blood of healthy controls
# Procedure: as §3, §4
smiles,measurement,setting,value
"NCC(=O)O [Gly, glycine]",TNF-α induced ICAM-1 expression levels in HLMVEC,ICAM-1,reduced levels of ICAM-1 expression to a lesser extent
same,VCAM-1 expression in HLMVEC,VCAM-1,greatly reduced
N[C@@H](CS)C(=O)O [cysteine],ROS measured in whole blood,[1]; treated with H2O2 and untreated in DPBS,reduced ROS
same,ROS measured in whole blood,"[2]; healthy control donors, treated with H2O2, dose-responsive",reduced ROS
N[C@@H](Cc1c[nH]c2ccccc12)C(=O)O [tryptophan],ROS signal,[1]; 10×,increased ROS signal
same,ROS signal,"[2]; healthy donor blood, 10×",increased ROS signal
